Measurements from article PMC10288505, “Photoswitchable Calixarene Activators for Controlled Peptide Transport across Lipid Membranes” (Journal of the American Chemical Society, 2023).
“And” between values parts separate entries of the source, which are not always exact repeats. Identical values can stand only once. Like-named read-outs stand apart in the source and are kept apart here.

Assays:
[1] = Carboxyfluorescein (CF) dye efflux assay, counterion-activated peptide transport; format: biochemical; conditions: for TE (transport efficiency), R6 transport / TE (transport efficiency), R8 transport: TE = Ymax × pEC50/f, pEC50 = −log EC50 (in mM), f = 20.6; for TE (transport efficiency), R6 transport: R6 4 μM; for TE (transport efficiency), R6 transport / TE (transport efficiency), R8 transport / Ymax (maximal CF release relative to Triton X-100 lysis), R6 transport / EC50 / Ymax (maximal CF release relative to Triton X-100 lysis), R8 transport: EYPC-LUV⊃CF 15 μM; for TE (transport efficiency), R8 transport: R8 4 μM; for Ymax (maximal CF release relative to Triton X-100 lysis), R6 transport / EC50 / Ymax (maximal CF release relative to Triton X-100 lysis), R8 transport: 5 mM phosphate buffer pH 7.3, Hill fit, triplicate; for EC50 / Activation of CF release in the presence of peptide R4: 50 mM CF inside; for EC50: fluorescence; for Activation of CF release in the presence of peptide R4: R4 5 µM, EYPC-LUV⊃CF 15 µM
Description: Dynamic light scattering (DLS) control experiments also confirmed liposome integrity under the experimental conditions employed in the different membrane transport assays, which ruled out potential membrane disruption interferences (Figure S34). Established dye efflux assays were performed using the carboxyfluorescein (CF) dye encapsulated at self-quenching concentrations in egg phosphatidylcholine large unilamellar vesicles (EYPC-LUV⊃CF).[26],[27],[29],[45] In these experiments, the fractional release of trapped CF (or fractional transport activity, Y), triggered by the addition of counterion activators and peptides, is monitored by time-resolved fluorescence spectroscopy and calibrated by the addition of Triton X-100 (Figure S35).
The studies were performed with both 1 and 2 in the E and Z configurations in the presence of fixed concentrations of liposomes and cationic peptides. […] Likewise, the addition of peptides alone or nonbinding anionic peptides in the presence of calixarene activators also results in unmodified fluorescence signal, confirming that the formation of the calixarene–peptide complex is critical to activate the transport process. […] This approach retrieves the Ymax (i.e., maximal CF release relative to liposome lysis after the addition of Triton X-100) and EC50 (i.e., the effective counterion activator concentration required to reach Ymax/2) as the relevant parameters to measure the efficiency of the counterion activators.
10 mg of L-α-phosphatidylcholine (95%) (Egg, Chicken) were dissolved in 1 ml of chloroform. The solution was evaporated under a nitrogen stream, under rotation, to form a thin lipid film in the bottom of the flask. This film was left to dry under vacuum for a minimum of 1h. After drying the maximum of the solvent from the solution, 1 ml of the solution to incorporate (CF 50 mM in 5 mM phosphate buffer for EYPC-LUV⊃CF and only phosphate buffer 5 mM pH 7.4, for the LUVs with no encapsulation) was added to the thin film and the lipids were left to resuspend under agitation, in a 40 °C bath, for 30 min. The resuspended lipid mixture was then submitted to 10 freeze-thaw cycles and extruded 23 times through a 100 nm membrane, to obtain uniform, monodisperse liposomes with high encapsulation of the added solution. The liposomes were then separated from the molecules that were not encapsulated by size-exclusion chromatography, with Sephadex G25 (V = 37 ml), obtaining two fractions, one with high turbidity and a clear one, corresponding to the encapsulated and free sensor, respectively. The samples were then analyzed by Dynamic Light Scattering (DLS) to determine the average size of the liposomes in solution and their size distribution.
All assays were done up to 48h after the preparation of the vesicles to ensure their integrity and majority of CF still encapsulated.
EC50 and Ymax calculation. For the measurement of 1 and 2’s effectiveness as a counterion activators of polyarginine transport, dye efflux assays were executed at several counterion activator concentrations, while maintaining the concentration of peptide and LUV fixed as indicated in the respective figures.
For the dye efflux assays, CF emission was followed throughout the assay, with consecutive additions of the elements of the solution – the initial solution presented only the vesicles at a fixed concentration. A counterion activator aliquot is then added according to the concentration to be tested and the emission is measured to confirm that CF remains encapsulated; some counterion activators can act as detergents at sufficient concentrations. Finally, the peptide in question is added and fluorescence spectra are measured […]
until the emission stabilizes and a maximum of release is reached. If the counterion activator has the capacity to activate the transport, CF should be co-transported to the exterior of the liposome with the influx of the counterion-peptide complex. Finally, Triton X-100 is added to the solution to dissolve the […]

[2] = tested on: HeLa cells; assay: MTT viability assay; format: cell-based; conditions: 24 h of incubation, 4-parameters logistic fit, triplicate, read-out: IC50 cytotoxicity
Description: Success in artificial vesicle assays encouraged us to conduct transport experiments of fluorescently labeled peptides in living cells (Figure 5). We first employed confocal fluorescence microscopy to evaluate counterion activator 2 for the intracellular transport of a carboxytetramethylrhodamine-labeled R8 peptide (TAMRA-R8) into the cytosol of HeLa cells. Cationic peptides usually remain trapped inside the endosomes when incubated with cells at low μM concentrations.[32],[44] […] The cytometry experiments validated the E isomer selective transport and indicated a four-fold intracellular delivery enhancement (Figure 5C and Figure S52). […]
measured on a Guava easyCyte BG HT collecting the emission at 583/26 nm (Yellow-G channel), using InCyte v3.2 (GuavaSoft, Millipore). Cells with typical FSC and SSC parameters were selected and the mean fluorescence intensity was calculated for each sample. Each condition was measured in quadruplicate. […]
Afterwards, samples were removed and replaced with 100 µL of fresh complete DMEM supplemented with 0.5 mg/mL MTT. […] The absorbance at 570 nm was measured with a plate reader (Tecan Infinite F200Pro) and the data normalized to the value of untreated cells (100% viability), after blank subtraction (cells previously treated with Triton X-100). Each condition was measured in triplicate. […]

[3] = peptide R6 4 μM, read-out: EC50 (effective counterion activator concentration to reach Ymax/2), R6 transport
[4] = peptide R8 4 μM, read-out: EC50 (effective counterion activator concentration to reach Ymax/2), R8 transport

O=S(=O)([O-])c1cc2c(O)c(c1)Cc1cc(S(=O)(=O)[O-])cc(c1O)Cc1cc(S(=O)(=O)[O-])cc(c1OCCCCCCOc1ccc(/N=N/c3ccccc3)cc1)Cc1cc(S(=O)(=O)[O-])cc(c1O)C2.[Li+].[Li+].[Li+].[Li+] [E-1]
TE (transport efficiency), R6 transport [1]: 19.4 ± 0.2 | TE (transport efficiency), R8 transport [1]: 20.3 ± 0.4 | Ymax (maximal CF release relative to Triton X-100 lysis), R6 transport ([1]; peptide R6 4 μM): 96% and 96 ± 1% | EC50 [1, 3]: 0.072 ± 0.005 µM | Ymax (maximal CF release relative to Triton X-100 lysis), R8 transport ([1]; peptide R8 4 μM): 91 ± 2% | EC50 [1, 4]: 0.024 ± 0.002 µM

CCCCc1ccc(/N=N/c2ccc(OCCCOc3c4cc(S(=O)(=O)[O-])cc3Cc3cc(S(=O)(=O)[O-])cc(c3O)Cc3cc(S(=O)(=O)[O-])cc(c3O)Cc3cc(S(=O)(=O)[O-])cc(c3O)C4)cc2)cc1.[Li+].[Li+].[Li+].[Li+] [E-2]
IC50 [2]: 16.9 µM | TE (transport efficiency), R6 transport [1]: 20.2 ± 0.2 | TE (transport efficiency), R8 transport [1]: 22.2 ± 0.3 | Ymax (maximal CF release relative to Triton X-100 lysis), R6 transport ([1]; peptide R6 4 μM): 96% and 96 ± 1% | EC50 [1, 3]: 0.045 ± 0.002 µM | Ymax (maximal CF release relative to Triton X-100 lysis), R8 transport ([1]; peptide R8 4 μM): 93 ± 2% | EC50 [1, 4]: 0.011 ± 0.001 µM

O=S(=O)([O-])c1cc2c(O)c(c1)Cc1cc(S(=O)(=O)[O-])cc(c1O)Cc1cc(S(=O)(=O)[O-])cc(c1OCCCCCCOc1ccc(/N=N\c3ccccc3)cc1)Cc1cc(S(=O)(=O)[O-])cc(c1O)C2.[Li+].[Li+].[Li+].[Li+] [Z-1]
Activation of CF release in the presence of peptide R4 [1]: no activation was observed | TE (transport efficiency), R6 transport [1]: 10.8 ± 0.8 | TE (transport efficiency), R8 transport [1]: 13.3 ± 0.4 | Ymax (maximal CF release relative to Triton X-100 lysis), R6 transport ([1]; peptide R6 4 μM): 63% and 63 ± 5% | EC50 [1, 3]: 0.291 ± 0.032 µM | Ymax (maximal CF release relative to Triton X-100 lysis), R8 transport ([1]; peptide R8 4 μM): 69 ± 2% | EC50 [1, 4]: 0.099 ± 0.003 µM

CCCCc1ccc(/N=N\c2ccc(OCCCOc3c4cc(S(=O)(=O)[O-])cc3Cc3cc(S(=O)(=O)[O-])cc(c3O)Cc3cc(S(=O)(=O)[O-])cc(c3O)Cc3cc(S(=O)(=O)[O-])cc(c3O)C4)cc2)cc1.[Li+].[Li+].[Li+].[Li+] [Z-2]
IC50 [2]: 19.2 µM | Activation of CF release in the presence of peptide R4 [1]: no activation was observed | TE (transport efficiency), R6 transport [1]: 16.6 ± 0.3 | TE (transport efficiency), R8 transport [1]: 20.8 ± 0.4 | Ymax (maximal CF release relative to Triton X-100 lysis), R6 transport ([1]; peptide R6 4 μM): 94% and 94 ± 2% | EC50 [1, 3]: 0.227 ± 0.017 µM | Ymax (maximal CF release relative to Triton X-100 lysis), R8 transport ([1]; peptide R8 4 μM): 94 ± 2% | EC50 [1, 4]: 0.03 ± 0.004 µM
